From patent US20240246967A1, “AXL COMPOUNDS” (ARCUS BIOSCIENCES, INC., priority 2021, published 2024) come the findings set out here.

The target in one assay is T1, human MER (Homo sapiens, UniProt Q12866).
T1 construct: purchased Invitrogen
T1 sequence (Q12866 21-999): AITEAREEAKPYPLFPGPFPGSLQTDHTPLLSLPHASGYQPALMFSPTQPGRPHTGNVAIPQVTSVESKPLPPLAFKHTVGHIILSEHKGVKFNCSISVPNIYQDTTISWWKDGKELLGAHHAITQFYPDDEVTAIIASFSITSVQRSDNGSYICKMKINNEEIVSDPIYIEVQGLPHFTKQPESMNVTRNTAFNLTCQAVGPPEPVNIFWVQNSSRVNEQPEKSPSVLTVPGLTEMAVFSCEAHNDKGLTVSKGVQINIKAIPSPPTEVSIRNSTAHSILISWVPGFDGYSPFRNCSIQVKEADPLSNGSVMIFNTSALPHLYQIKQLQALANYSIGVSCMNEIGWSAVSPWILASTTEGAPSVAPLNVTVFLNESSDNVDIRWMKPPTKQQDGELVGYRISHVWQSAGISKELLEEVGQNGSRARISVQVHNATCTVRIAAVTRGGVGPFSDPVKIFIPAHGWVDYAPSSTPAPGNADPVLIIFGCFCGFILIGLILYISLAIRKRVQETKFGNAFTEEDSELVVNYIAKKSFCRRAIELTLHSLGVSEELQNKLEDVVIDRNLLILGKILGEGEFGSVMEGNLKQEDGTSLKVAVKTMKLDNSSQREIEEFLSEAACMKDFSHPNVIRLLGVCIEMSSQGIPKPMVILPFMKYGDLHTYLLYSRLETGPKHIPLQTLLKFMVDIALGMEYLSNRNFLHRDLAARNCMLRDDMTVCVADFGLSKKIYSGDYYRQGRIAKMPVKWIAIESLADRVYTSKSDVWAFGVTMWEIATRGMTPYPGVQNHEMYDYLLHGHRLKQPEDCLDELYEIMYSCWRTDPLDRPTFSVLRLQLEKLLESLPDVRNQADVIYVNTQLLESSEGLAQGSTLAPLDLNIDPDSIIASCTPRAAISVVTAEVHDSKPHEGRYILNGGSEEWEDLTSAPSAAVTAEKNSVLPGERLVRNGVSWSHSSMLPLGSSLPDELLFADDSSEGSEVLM
As to the kind of experiment: HTRF KinEASE-TK biochemical potency assay, MER. The settings on record: 1 nM MER, 700 μM ATP, 800 nM TK Substrate-biotin. A digest of the protocol: (§1)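 Final conditions: 5 nM AXL, 1 nM TYRO3 or MER, 50 mM HEPES pH 7.4, 10 mM MgCl2, 0.01% BSA, 1 mM DTT, 700 μM ATP. Reaction ran 2 h at RT after 1 h preincubation with compound; HTRF signal read at 665/620 nm.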
(Time-resolved FRET reads energy transfer from a long-lived donor to a nearby acceptor.)

The target in a further assay is T2, human TYRO3 (Homo sapiens, UniProt Q06418).
T2 construct: purchased Invitrogen
T2 sequence (Q06418 41-890): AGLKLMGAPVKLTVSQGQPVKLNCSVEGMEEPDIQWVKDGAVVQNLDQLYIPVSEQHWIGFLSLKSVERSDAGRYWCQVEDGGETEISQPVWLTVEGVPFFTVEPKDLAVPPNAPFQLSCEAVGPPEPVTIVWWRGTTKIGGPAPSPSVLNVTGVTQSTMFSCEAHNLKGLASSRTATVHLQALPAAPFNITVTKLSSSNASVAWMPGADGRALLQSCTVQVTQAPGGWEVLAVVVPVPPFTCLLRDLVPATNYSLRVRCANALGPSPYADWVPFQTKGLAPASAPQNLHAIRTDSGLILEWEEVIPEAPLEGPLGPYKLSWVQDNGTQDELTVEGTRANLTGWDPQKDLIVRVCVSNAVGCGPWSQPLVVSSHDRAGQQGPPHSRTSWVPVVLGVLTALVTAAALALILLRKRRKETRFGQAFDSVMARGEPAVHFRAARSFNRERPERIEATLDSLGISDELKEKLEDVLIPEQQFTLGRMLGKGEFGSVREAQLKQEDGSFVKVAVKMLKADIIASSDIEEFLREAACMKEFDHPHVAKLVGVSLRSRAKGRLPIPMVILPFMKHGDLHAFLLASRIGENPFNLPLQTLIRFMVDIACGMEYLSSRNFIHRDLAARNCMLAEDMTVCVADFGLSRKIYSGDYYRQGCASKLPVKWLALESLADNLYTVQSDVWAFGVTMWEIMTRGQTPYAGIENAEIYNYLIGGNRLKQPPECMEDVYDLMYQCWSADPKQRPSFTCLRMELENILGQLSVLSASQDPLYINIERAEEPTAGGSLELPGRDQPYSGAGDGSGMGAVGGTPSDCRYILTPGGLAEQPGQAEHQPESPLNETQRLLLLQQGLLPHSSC
In words: HTRF KinEASE-TK biochemical potency assay, TYRO3. The settings on record: 1 nM TYRO3, 700 μM ATP, 800 nM TK Substrate-biotin. A digest of the protocol: as §1

Broadly, the IC50 is the concentration needed to halve the response being measured. A lower IC50 goes with greater potency. As to `C[C@@H]1CCCN1C1(C)CCc2ccc(-c3cnc4[nH]nc(-c5ccc(S(=O)(=O)N6CCC6)cc5)c4c3)cc2CC1` (stereo partly drawn) [Example 104, (2R)-1-(2-{3-[4-(Azetidine-1-sulfonyl)phenyl]-1H-pyrazolo[3,4-b]pyridin-5-yl}-7-methyl-6,7,8,9-tetrahydro-5H-benzo[7]annulen-7-yl)-2-methylpyrrolidine], the IC50 against human MER was 100 to 1000 nM; against human TYRO3, less than 100 nM.
In the case of `C[C@@H]1CCCN1C1(C)CCc2ccc(-c3cnc4[nH]cc(-c5ccc(S(=O)(=O)C6CC6)cc5)c4c3)cc2CC1` (stereo partly drawn) [Example 105, (2R)-1-(2-{3-[4-(Cyclopropanesulfonyl)phenyl]-1H-pyrrolo[2,3-b]pyridin-5-yl}-7-methyl-6,7,8,9-tetrahydro-5H-benzo[7]annulen-7-yl)-2-methylpyrrolidine], the IC50 against human MER is greater than 1000 nM; against human TYRO3, 100 to 1000 nM.
In the case of `C[C@@H]1CCCN1C1(C)CCc2ccc(-c3cnc4[nH]nc(-c5ccc(N6CCOCC6)cc5)c4c3)cc2CC1` (stereo partly drawn) [Example 107, 4-[4-(5-{7-Methyl-7-[(2R)-2-methylpyrrolidin-1-yl]-6,7,8,9-tetrahydro-5H-benzo[7]annulen-2-yl}-1H-pyrazolo[3,4-b]pyridin-3-yl)phenyl]morpholine], the IC50 on human MER is greater than 1000 nM; against human TYRO3, 100 to 1000 nM.
`COCCNCc1ccc(-c2n[nH]c3ncc(-c4ccc5c(c4)CCC(C)(N4CCC[C@H]4C)CC5)cc23)cc1` (stereo partly drawn) [Example 108, (2-Methoxyethyl)({[4-(5-{7-methyl-7-[(2R)-2-methylpyrrolidin-1-yl]-6,7,8,9-tetrahydro-5H-benzo[7]annulen-2-yl}-1H-pyrazolo[3,4-b]pyridin-3-yl)phenyl]methyl})amine]: the results for the IC50 against human MER and at human TYRO3 were greater than 1000 nM and 100 to 1000 nM, respectively.
As to `C[C@@H]1CCCN1C1CCc2ccc(-c3cnc4[nH]nc(-c5ccc(S(=O)(=O)C6CC6)cc5)c4c3)cc2C(C)(C)C1` (stereo partly drawn) [Example 109, (2R)-1-(2-{3-[4-(Cyclopropanesulfonyl)phenyl]-1H-pyrazolo[3,4-b]pyridin-5-yl}-9,9-dimethyl-6,7,8,9-tetrahydro-5H-benzo[7]annulen-7-yl)-2-methylpyrrolidine], the IC50 was greater than 1000 nM on human MER and 100 to 1000 nM at human TYRO3.
The corresponding values for `COCCOc1ccc(-c2n[nH]c3ncc(-c4ccc5c(c4)CCC(C)(N4CCC[C@H]4C)CC5)cc23)cc1` (stereo partly drawn) [Example 110, 3-(4-(2-Methoxyethoxy)phenyl)-5-(7-methyl-7-((R)-2-methylpyrrolidin-1-yl)-6,7,8,9-tetrahydro-5H-benzo[7]annulen-2-yl)-1H-pyrazolo[3,4-b]pyridine] are 100 to 1000 nM and 100 to 1000 nM.
With `COCCS(=O)(=O)c1ccc(-c2n[nH]c3ncc(-c4ccc5c(c4)CCC(C)(N4CCC[C@H]4C)CC5)cc23)cc1` (stereo partly drawn) [Example 111, (2R)-1-(2-{3-[4-(2-Methoxyethanesulfonyl)phenyl]-1H-pyrazolo[3,4-b]pyridin-5-yl}-7-methyl-6,7,8,9-tetrahydro-5H-benzo[7]annulen-7-yl)-2-methylpyrrolidine], the IC50 is 100 to 1000 nM against human MER and less than 100 nM at human TYRO3.
For `O=C([C@@H]1CCCN1)N1CCc2ccc(-c3cnc4[nH]nc(-c5ccc(S(=O)(=O)C6CC6)cc5)c4c3)cc2CC1` [Example 112, 7-{3-[4-(Cyclopropanesulfonyl)phenyl]-1H-pyrazolo[3,4-b]pyridin-5-yl}-3-[(2S)-pyrrolidine-2-carbonyl]-2,3,4,5-tetrahydro-1H-3-benzazepine], in that order: greater than 1000 nM and 100 to 1000 nM.
The corresponding values for `O=C([C@H]1CCCN1)N1CCc2ccc(-c3cnc4[nH]nc(-c5ccc(S(=O)(=O)C6CC6)cc5)c4c3)cc2CC1` [Example 113, 7-{3-[4-(Cyclopropanesulfonyl)phenyl]-1H-pyrazolo[3,4-b]pyridin-5-yl}-3-[(2R)-pyrrolidine-2-carbonyl]-2,3,4,5-tetrahydro-1H-3-benzazepine] are greater than 1000 nM and 100 to 1000 nM.
For `COc1cc(-c2n[nH]c3ncc(-c4ccc5c(c4)CCC(C)(N4CCC[C@H]4C)CC5)cc23)ccc1OC[C@H]1COCCO1` (stereo partly drawn) [Example 114, (2R)-1-{2-[3-(4-{[(2R)-1,4-Dioxan-2-yl]methoxy}-3-methoxyphenyl)-1H-pyrazolo[3,4-b]pyridin-5-yl]-7-methyl-6,7,8,9-tetrahydro-5H-benzo[7]annulen-7-yl}-2-methylpyrrolidine], in that order: greater than 1000 nM and 100 to 1000 nM.
In the case of `CC1(N[C@H]2CCOC2)CCc2ccc(-c3cnc4[nH]nc(-c5ccc(S(=O)(=O)C6CC6)cc5)c4c3)cc2CC1` (stereo partly drawn) [Example 115, (3S)-N-(2-{3-[4-(Cyclopropanesulfonyl)phenyl]-1H-pyrazolo[3,4-b]pyridin-5-yl}-7-methyl-6,7,8,9-tetrahydro-5H-benzo[7]annulen-7-yl)oxolan-3-amine], the IC50 on human MER and on human TYRO3 was 100 to 1000 nM each time.
As for `C[C@@H]1CCCN1C1(C)CCc2ccc(-c3cnc4[nH]nc(-c5ccc(C(=O)N[C@H]6CCOC6)cc5)c4c3)cc2CC1` (stereo partly drawn) [Example 117, 4-(5-{7-Methyl-7-[(2R)-2-methylpyrrolidin-1-yl]-6,7,8,9-tetrahydro-5H-benzo[7]annulen-2-yl}-1H-pyrazolo[3,4-b]pyridin-3-yl)-N-[(3S)-oxolan-3-yl]benzamide], the IC50 against human MER and against human TYRO3 was greater than 1000 nM in each case.
For the compound `C[C@@H]1CCCN1C1(C)CCc2ccc(-c3cnc4[nH]nc(-c5ccc(C(=O)N6CCCC6)cc5)c4c3)cc2CC1` (stereo partly drawn) [Example 118, (2R)-2-Methyl-1-(7-methyl-2-{3-[4-(pyrrolidine-1-carbonyl)phenyl]-1H-pyrazolo[3,4-b]pyridin-5-yl}-6,7,8,9-tetrahydro-5H-benzo[7]annulen-7-yl)pyrrolidine], the IC50 against human MER and against human TYRO3 was greater than 1000 nM throughout.
In the case of `Cc1cc(-c2n[nH]c3ncc(-c4ccc5c(c4)CCN(C4CC4)CC5)cc23)ccc1C(=O)N1CCNCC1` [Example 119, 3-Cyclopropyl-7-{3-[3-methyl-4-(piperazine-1-carbonyl)phenyl]-1H-pyrazolo[3,4-b]pyridin-5-yl}-2,3,4,5-tetrahydro-1H-3-benzazepine], the IC50 at human MER was greater than 1000 nM; against human TYRO3 it was less than 100 nM.
The corresponding values for `CC1(N2CCc3ccc(-c4cnc5[nH]nc(-c6ccc(S(=O)(=O)C7CC7)cc6)c5c4)cc3CC2)CCCC1` [Example 120, 7-{3-[4-(Cyclopropanesulfonyl)phenyl]-1H-pyrazolo[3,4-b]pyridin-5-yl}-3-(1-methylcyclopentyl)-2,3,4,5-tetrahydro-1H-3-benzazepine] are greater than 1000 nM and 100 to 1000 nM.
The corresponding values for `O=C1OCCN1c1ccc(-c2n[nH]c3ncc(-c4ccc5c(c4)CC[C@@H](N4C6COCC4C6)CC5)cc23)cc1` [Example 121, 3-(4-{5-[(7S)-7-{3-oxa-6-azabicyclo[3.1.1]heptan-6-yl}-6,7,8,9-tetrahydro-5H-benzo[7]annulen-2-yl]-2H-pyrazolo[3,4-b]pyridin-3-yl}phenyl)-1,3-oxazolidin-2-one] are greater than 1000 nM and 100 to 1000 nM.
